In patent US7393828B2, “Modified MscL protein channel” (Applied NanoSystems B.V., priority 2003, dated 2008):

Columns and labels:
[1] = molecular target: MscL channel protein (G22C, cysteine at 22nd position) (Escherichia coli, UniProt P0A742, G22C); settings: for channel activity of modified protein in response to pH: same sample in the same buffer at different pHs; for pH at which channel activity starts: buffers at different pHs
Description: All synthesized compounds were attached to the MscL protein from E. coli via cysteine modification. In this example, the 22nd position of the protein was mutated to a cysteine.
A membrane pellet fraction was obtained from a fermentor culture of E. coli pB104 cells containing the plasmid PB104 carrying the MscL(G22C)-6His construct. MscL was isolated to near homogeneity via a single nickel-nitriloacetic acid (Ni-NTA) metal-affinity chromatography step.
The protein modification reaction was stopped and the excess label was removed by applying the sample into a gel filtration column. The protein concentration of elution fractions was determined by Bradford Assay.
The modified protein was reconstituted in synthetic lipid membranes in order to follow the channel activity. For this purpose, DOPC:Cholesterol:DSPE-PEG (70:20:10 Molar ratio) liposomes were titrated with Triton-X100 until saturation. Titrated liposomes were mixed with modified protein in 1:120 (wt:wt) protein to lipid ratio. Biobeads were used to remove the detergent. A self-quenching dye, calcein, was added and included into the interior of the proteoliposomes during reconstitution.
Proteoliposomes containing modified MscL protein were analyzed by a fluorescent dye efflux assay. The activity of the channel was measured as an increase in the fluorescence of a reporter molecule, the dye calcein. Calcein is included in the liposome interior at a self-quenching concentration, but when the calcein escapes into the exterior medium, the dilution is such that quenching is completely abolished.
During reconstitution of the protein into the mixture of synthetic lipids in the presence of a detergent, a self-quenching dye, calcein, is also added into the mixture to a final concentration of 50 mM. After the reconstitution is completed by the removal of the detergent, the calcein-containing liposomal fraction was separated from the unencapsulated free calcein by passing the sample through a Sephadex G50 size exclusion column (FIG. 7A).
A portion of the liposomal fraction is placed in 2 ml iso-osmotic buffer and the activity of the channels is followed by measuring the increase in fluorescence as calcein becomes dequenched upon being released through the channel protein in response to a stimulus (FIG. 7B). Fluorescence was monitored with a SLM 500 spectrofluorometer Excitation and emission wavelengths were 490 (slit 2 nm) and 520 nm (slit 4 nm), respectively. A positively charged MTS reagent (MTSET) was used as a positive control.
The MscL protein was modified with the different pH-responsive compounds. The activity of the channel in response to pH was analyzed by the calcein efflux assay. In order to do that, the same buffer at different pHs were prepared and the same sample is analyzed in each buffer.
The MscL protein was modified with a light-sensitive compound. The activity of the channel was analyzed in response to pH. After measuring the initial fluorescence value for samples at each pH, they were exposed to 366 nm light for five to ten minutes. Then, the measurement was continued as before.
The protein from cysteine mutant MscL (cysteine in its 22nd amino acid position) was isolated and modified as explained in Example 2, except that the light-responsive compound E (see FIG. 12c) (P6—C1[X═I]) was dissolved in DM50 and incubated with the protein at a 1:500 molar ratio (protein:compound) for 45 minutes.
(§1) The resulting modified channel was reconstituted in the presence of a fluorescent dye as explained in Example 3 for the calcein efflux experiment. Another sample of the modified channel was prepared for patch clamp experiments as indicated in Example 6.
The protein was isolated and modified as in Example 2 and reconstituted in the presence of calcein as indicated in Example 3.

[2] = molecular target: MscL channel protein (cysteine in its 22nd amino acid position) (Escherichia coli, UniProt P0A742, G22C)
Experimental: The activity of the chemically modified MscL is analyzed real time at the single molecule level with patch clamp, a classical electrophysiological technique. This technique allows sealing a patch of membrane, which has embedded channel proteins in it, into the tip of a glass micropipette, and monitoring the ionic current flowing through the open channels in response to different conditions.
As a mechanosensitive channel, unmodified MscL needs a significant amount of tension on the membrane to gate. In patch clamp conditions, it corresponds to the application of negative pressure almost as high as that causing rupturing of the patched membrane.
The channel activity was measured by following its conductance.
The protein from cysteine mutant MscL (cysteine in its 22nd amino acid position) was isolated, modified and reconstituted as explained in Example 2. After reconstitution, giant proteoliposomes were prepared as indicated (A. H. Delcour, B. Martinac, F. R. Blattner, C. Kung, Biophys. J. 1989, 56:631-636). Ten μl rehydrated lipids were placed in 100 μl bath solution and resulting giant liposomes were patched by using glass pipettes with 1 μm tip size. They were made from 100 μl borosilicate capillaries in Sutter 97/IVF micropipette puller. Single channel recordings were performed at +20 mV in symmetrical buffer conditions in 200 mM KCl, 100 mM MgCl2, 5 mM HEPES, pH 6-8. Data were amplified and filtered in Axopatch1D amplifier and sampled in Digidata 1322A digitizer. Recordings were analyzed with pCLAMP8 software.
as §1
Membranes having modified channels were patched at dark or five to ten minutes after illumination with 366 nm light.

[3] = molecular target: double cysteine MscL mutant (22nd and 23rd positions) (Escherichia coli, UniProt P0A742, G22C/V23C)
Description: In order to further improve modulation of the activity of chemically modified MscL, in addition to the amino acid at the 22nd position of the channel, the 23rd position is also replaced with cysteine. This way, if all the subunits are modified, one can introduce two times more charge.
This example compares the single- and double-cysteine mutants for their performance in efflux from proteoliposomes.
The protein from each mutant was obtained and modified with the Compound C (Q1[R1═R2=Me]-L1[n=2]—C3), as explained in Example 2, and the reconstitution for calcein efflux assay was as in Example 3.

[4] = Solubility of the product in common solvents; assay type: physicochemical

MscL channel protein (cysteine in its 22nd amino acid position), sequence (P0A742 whole entry G22C): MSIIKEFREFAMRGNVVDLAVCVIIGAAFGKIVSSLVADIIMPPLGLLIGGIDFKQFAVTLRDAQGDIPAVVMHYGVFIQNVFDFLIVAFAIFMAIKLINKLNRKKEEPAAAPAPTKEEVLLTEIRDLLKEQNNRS
MscL channel protein (G22C, cysteine at 22nd position), sequence (P0A742 whole entry G22C): as above
double cysteine MscL mutant (22nd and 23rd positions), sequence (P0A742 whole entry G22C/V23C): as the sequence (P0A742 whole entry G22C) above, with V23C counted along it

## CS(=O)(=O)SCCOC(=O)CN [compound A]
[1]; physiological pH
  channel activity at physiological pH: some activity
[1]
  channel activity of modified protein in response to pH: pH-dependent activation, especially at lower pHs

## CNCC(=O)OCCSS(C)(=O)=O [compound B]
[1]
  pH at which channel activity starts: < 8 pH
  channel activity of modified protein in response to pH: pH-dependent activation
[1]; compound attached to MscL
  pKa: approximately 8
[2]; pH 6.2, n=4
  channel gating in patch clamp at pH 6.2: gated even without any applied negative pressure
[2]; pH 7.2, n=10
  mean negative pressure applied (until membrane rupture, no gating): 79 mmHg
[2]; pH 7.2, n=10, negative pressure applied until the patched membrane ruptured
  channel activity in patch clamp at pH 7.2: did not give any activity

## CN(C)CC(=O)OCCSS(C)(=O)=O [compound C]
[3]; high pH
  release of liposomal content at high pH, double mutant: did not release the liposomal content
[3]; low pH, two separate experiments
  release at low pH, double mutant compared with single mutant: better release
[1]
  pH at which channel activity starts: ~7.03 pH
[1]; high pH
  release of liposomal content at high pH, single mutant: did not release the liposomal content
[1]; pH 7.5
  channel activity at pH 7.5: no activity
[2]; different pHs
  pH dependence of gating in patch clamp: gated only at low pH environment
[2]; pH 6.3
  channel gating in patch clamp at pH 6.3: spontaneous gating

## COc1cc(COC(=O)NCCSS(C)(=O)=O)c([N+](=O)[O-])cc1OC [compound D, methanethiosulfonic acid S-[2-(4,5-dimethoxy-2-nitro-benzyloxycarbonylamino)-ethyl] ester]
[1]; after 366 nm light for five to ten minutes, different pHs
  channel activity after cleavage of the light-sensitive part: pH-dependent activity
[1]; no illumination, different pHs
  channel activity before photolysis: stayed inactive until the photolysis occurs
[4]; DMF, DMSO
  solubility in DMF and DMSO: soluble
[4]; dichloromethane, chloroform
  solubility in dichloromethane and chloroform: a little soluble
[4]; other common solvents
  solubility in other common solvents: very badly soluble

## C[N+](C)(C)CCSS(C)(=O)=O.[Br-] [MTSET, [2-(Trimethylammonium)-ethyl]-methanethiosulfonate bromide, reference compound]
[1]; MTSET 0.8 mM final concentration as trigger
  channel opening after reaction with free sulfhydryl at 22nd position (positive control): always opens the channel

## COc1cc(COC(=O)CI)c([N+](=O)[O-])cc1OC [compound E, 4.5-dimethoxy-2-nitrobenzyl 2-iodoacetate]
[1]; dark, iso-osmotic conditions
  release of fluorescent dye in the dark: did not give any release
[1]; exposed to ultraviolet light, iso-osmotic conditions
  release of fluorescent dye after illumination: released the fluorescent dye as soon as proteoliposomes were exposed to ultraviolet light
[2]; dark, negative pressure up to membrane rupture
  channel gating in patch clamp at dark: no channel gating
[2]; five to ten minutes after illumination with 366 nm light, no tension
  channel gating in patch clamp after illumination: gated simultaneously with no tension
